ChEMBL document CHEMBL3860055, “Design, synthesis and in vitro evaluation of amidoximes as histone deacetylase inhibitors for cancer therapy” (Bioorg Med Chem Lett, 2016)

Assays:
[1] = Cell cycle arrest in human A549 cells assessed as accumulation at G2/M-phase at 26 uM measured after 24 hrs by propidium iodide staining based flow cytometric analysis (reference value: 27%); type: functional
[2] = Cell cycle arrest in human A549 cells assessed as accumulation at G2/M-phase at 157 uM measured after 24 hrs by propidium iodide staining based flow cytometric analysis (reference value: 27%); type: functional
[3] = Antiproliferative activity against human HCT116 cells measured after 72 hrs by WST1 assay; type: functional, cell-based; details: HCT-116, 72 h
[4] = Cell cycle arrest in human A549 cells assessed as accumulation at S-phase at 26 uM measured after 24 hrs by propidium iodide staining based flow cytometric analysis (reference value: 7%); type: functional
[5] = Cell cycle arrest in human HCT116 cells assessed as accumulation at G1-phase at 26 uM measured after 24 hrs by propidium iodide staining based flow cytometric analysis (reference value: 59%); type: functional; details: HCT-116
[6] = Cell cycle arrest in human HCT116 cells assessed as accumulation at G2/M-phase at 26 uM measured after 24 hrs by propidium iodide staining based flow cytometric analysis (reference value: 30%); type: functional; details: HCT-116
[7] = Cell cycle arrest in human A549 cells assessed as accumulation at G1-phase at 157 uM measured after 24 hrs by propidium iodide staining based flow cytometric analysis (reference value: 63%); type: functional
[8] = Antiproliferative activity against human A549 cells measured after 72 hrs by WST1 assay; type: functional, cell-based; details: A549, 72 h
[9] = Cell cycle arrest in human A549 cells assessed as accumulation at G1-phase at 26 uM measured after 24 hrs by propidium iodide staining based flow cytometric analysis (reference value: 63%); type: functional
[10] = Cell cycle arrest in human HCT116 cells assessed as accumulation at G2/M-phase at 157 uM measured after 24 hrs by propidium iodide staining based flow cytometric analysis (reference value: 30%); type: functional; details: HCT-116
[11] = Cell cycle arrest in human HCT116 cells assessed as accumulation at S-phase at 157 uM measured after 24 hrs by propidium iodide staining based flow cytometric analysis (reference value: 8%); type: functional; details: HCT-116
[12] = Cell cycle arrest in human HCT116 cells assessed as accumulation at S-phase at 26 uM measured after 24 hrs by propidium iodide staining based flow cytometric analysis (reference value: 8%); type: functional; details: HCT-116
[13] = Cell cycle arrest in human A549 cells assessed as accumulation at G2/M-phase measured after 24 hrs by propidium iodide staining based flow cytometric analysis; type: functional
[14] = target: Histone deacetylase (HDAC1 and HDAC2) (Homo sapiens, UniProt Q13547+Q92769); assay: Inhibition of HDAC1/HDAC2 in human HeLa cell nuclear extract preincubated for 20 mins followed by addition of HDAC green as substrate measured after 60 mins by fluorescence analysis; type: cell-based
[15] = Cell cycle arrest in human HCT116 cells assessed as accumulation at G1-phase at 157 uM measured after 24 hrs by propidium iodide staining based flow cytometric analysis (reference value: 59%); type: functional; details: HCT-116
[16] = Cell cycle arrest in human A549 cells assessed as accumulation at S-phase at 157 uM measured after 24 hrs by propidium iodide staining based flow cytometric analysis (reference value: 7%); type: functional

SMILES	EC50 [3] [µM]	EC50 [8] [µM]	IC50 [14] [µM]	further results
N/C(=N\O)c1ccc(NC(=O)CNCCc2ccccc2)cc1	26	157	0.093	Activity [1]: 36%; Activity [2]: 68%; Activity [4]: 7%; Activity [5]: 31%; Activity [6]: 58%; Activity [7]: 22%; Activity [9]: 54%; Activity [10]: 87%; Activity [11]: 5%; Activity [12]: 7%; Activity [13]: Dose-dependent effect; Activity [15]: 3%; Activity [16]: 9%
CCCCNCCC(=O)Nc1ccc(/C(N)=N/O)cc1	153	881	0.528	
CCCCCCNC(=O)Nc1ccc(/C(N)=N/O)cc1	195	> 1000	0.599	
CCCCNCCCCC(=O)Nc1ccc(/C(N)=N/O)cc1	516	> 1000	> 1	
CCCCNCC(=O)Nc1ccc(/C(N)=N/O)cc1	83	395	0.282	
N/C(=N\O)c1ccc(NC(=O)CCCCNCCc2ccccc2)cc1	691	> 1000	> 1	
CCCCNCCCC(=O)Nc1ccc(/C(N)=N/O)cc1	267	> 1000	0.723	
N/C(=N\O)c1ccc(NC(=O)CCCNCCc2ccccc2)cc1	218	> 1000	0.697	
CCCCCCNCCCC(=O)Nc1ccc(/C(N)=N/O)cc1	312	> 1000	> 1	
CCCCCCNCCC(=O)Nc1ccc(/C(N)=N/O)cc1	193	> 1000	0.602	
CCCCNC(=O)Nc1ccc(/C(N)=N/O)cc1	186	> 1000	0.591	
N/C(=N\O)c1ccc(NC(=O)NCCc2ccccc2)cc1	91	463	0.304	
CCCCCCNCC(=O)Nc1ccc(/C(N)=N/O)cc1	124	658	0.381	
O=C(NCCc1ccccc1)Nc1ccc(C(=O)NO)cc1	175	> 1000	0.582	
N/C(=N\O)c1ccc(NC(=O)CCNCCc2ccccc2)cc1	69	330	0.273	
CCCCCCNCCCCC(=O)Nc1ccc(/C(N)=N/O)cc1	> 1000	> 1000	> 1	
